The test system of one data set is HIV-1DV. Nature of the data set: HIV-1 p24 production in SUP T1 cells. It is filed as cell-based.
In data set [1] the test system is SUP T1 cells.
For a further data set, the system named is HIV-1 strain DV. Nature of the data set: HIV-1 induced syncytia formation assay in SUP T1 cells. It is filed as cell-based.
Another data set has as its target HIV-1 RT (Human immunodeficiency virus type 1 group M subtype B, UniProt P04585). Nature of the data set: In vitro inhibition of HIV-1 RT (kinetic analysis). It is filed as biochemical. The following applies: for pIC50: read-out: ID50 (the source's name).
Data set [2] addresses HIV-1 gp120 interaction with CD4 (Human immunodeficiency virus type 1 group M subtype B, UniProt P04578).
For data set [3], the system named is SUP T1 cells. Nature of the data set: Cytotoxicity assay, CellTiter 96 (MTS), SUP T1 cells. The following applies: read-out: TC50 (concentration reducing cell proliferation by 50%); SUP T1, dye (MTS) metabolism assay.
Setting [4] is: SUP T1, HIV-1 DV, read-out: IC50 in anti-HIV-1 syncytia formation assay.
Where [5] appears, read: read-out: ID50 [CD4], oligo binding to immobilized CD4.
The mark [6] stands for this setting: read-out: ID50 [gp 120], oligo preincubated with soluble gp120.

pIC50, pKi: −log10 of the molar value. Read-outs that look alike come from different tables or passages of the source.

In general, pKi refers to the negative decadic logarithm of the Ki, by convention in mol/L. The low end stands for a large Ki, the high end for a small Ki.

As for “5′-gtggtgggtgggtgggtggtgggtggtggttgtgggtgggtggtg-3′ [I100-07]”, in the data set with HIV-1DV (2.5 uM, drug removed day 4), the “Percent p24 relative to infected untreated control, Day 7” value is 15.9%. For the same substance, in the data set on HIV-1DV (2.5 uM, drug removed day 4), the “Percent p24 relative to infected untreated control, Day 11” value stood at 8.6%. The “Percent p24 relative to infected untreated control, Day 4” value in the data set with HIV-1DV (2.5 uM, medium replaced day 4) is recorded as 6.0%. The pIC50 was 6.26 in the data set on HIV-1DV (SUP T1, HIV-1DV, four days); 6.60 in the data set with HIV-1 strain DV (SUP T1, HIV-1DV, four days, read-out: IC50 Syn (syncytium inhibition)); 6.60 with HIV-1 strain DV (setting [4]); 5.60 on HIV-1 RT; 5.37 in data set [2] (setting [5]); 6.10 in data set [2] (setting [6]). The substance also showed a CC50 with SUP T1 cells [1] of more than 50000 nM. On HIV-1 RT, this substance showed a negative logarithm of the Ki (pKi) of 6.86. In addition, the “inhibition of detection of immobilized gp120 by HRP-α-gp120 antibody” value in data set [2] (control experiment) is reported as “did not inhibit”.
Regarding “5′-gttgggggttgttggtggggtggtgg-3′ [I100-00] (DNA GTTGGGGGTTGTTGGTGGGGTGGTGG; phosphorodiamidate backbone, further chemistry not given here)”, in the data set with SUP T1 cells [3], the CC50 is 37000 nM. The pIC50 in the data set with HIV-1 strain DV (setting [4]) was 5.43; with HIV-1 RT, 5.30; in data set [2] (setting [5]), 4.74; in data set [2] (setting [6]) it was 5.46. In the data set with HIV-1 RT, this substance had a negative logarithm of the Ki (pKi) of 6.43.

(Values after patent US6355785B1, “Guanosine-rich oligonucleotide integrase inhibitors” (Aronex Pharmaceuticals, Inc., priority 1993, dated 2002).)
